Data taken from ChEMBL document CHEMBL2331190, “Synthesis of 1,4-bis(indolin-1-ylmethyl)benzene derivatives and their structure-activity relationships for the interaction of human carbonic anhydrase isoforms I and II” (Bioorg Med Chem, 2013).

Legend:
Carbonic anhydrase 2 = Carbonic anhydrase 2 (Homo sapiens, UniProt P00918); test: Inhibition of human carbonic anhydrase 2 using 4-nitrophenylacetate as substrate after 3 mins by spectrophotometric analysis
Carbonic anhydrase 1 = Carbonic anhydrase 1 (Homo sapiens, UniProt P00915); test: Inhibition of human carbonic anhydrase 1 using 4-nitrophenylacetate as substrate after 3 mins by spectrophotometric analysis
Carbonic anhydrase 1, sequence (P00915 whole entry): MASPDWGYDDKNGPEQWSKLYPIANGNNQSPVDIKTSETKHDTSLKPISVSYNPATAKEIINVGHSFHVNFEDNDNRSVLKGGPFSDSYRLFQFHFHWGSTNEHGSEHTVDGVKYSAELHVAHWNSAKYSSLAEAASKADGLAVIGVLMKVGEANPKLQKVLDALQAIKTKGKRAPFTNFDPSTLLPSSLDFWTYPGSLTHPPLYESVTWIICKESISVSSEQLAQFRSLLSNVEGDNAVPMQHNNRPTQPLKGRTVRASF

Row | Ki (Carbonic anhydrase 2) [µM] | Ki (Carbonic anhydrase 1) [µM] | SMILES
1 | 0.17 | 42.6 | c1ccc2c(c1)c1c(n2Cc2ccc(Cn3c4c(c5ccccc53)CCC4)cc2)CCC1
2 | 0.25 | 39.3 | c1ccc2c(c1)c1c(n2Cc2ccc(Cn3c4c(c5ccccc53)CCCC4)cc2)CCCC1
3 | 0.29 | 41.7 | c1ccc2c(c1)c1c(n2Cc2ccc(Cn3c4c(c5ccccc53)CCCCC4)cc2)CCCCC1
